Data: patent US12275745B2, “Therapeutic compounds and methods of use” (Genentech, Inc., priority 2021, dated 2025)
Where two headings read alike, the source gives them in different places.

Key:
TEAD1 = TEAD1 (Homo sapiens, UniProt P28347); experiment: TR-FRET (Lipid HTRF) TEAD lipid pocket probe displacement assay, TEAD1; assay type: binding; settings: His-tagged TEAD1, biotinylated lipid pocket probe, 4 hours
Experimental: (§1) His-tagged TEAD proteins are pre-incubated with TEAD project compounds for 30 minutes or 4 hours at room temperature. Biotinylated lipid pocket probes are then added to the TEAD/Compound mixture and incubated for 60 minutes at room temperature. The lipid pocket probe competes with the test compound for the TEAD lipid pocket until equilibrium is reached. After 60 minutes, Europium labelled anti-His (Perkin Elmer #AD0110) and XL665 labelled streptavidin (CIS Bio 610SAXAC) are added to the TEAD/test compound/lipid pocket mixture and incubated for 30 minutes or 4 hours. TR-FRET values are then measured using an EnVision multi-label plate reader (Perkin Elmer Cat #2104-001 0A.) If the lipid pocket probe binds to TEAD as expected, a TR-FRET signal results from the proximity of anti-His Eu and XL665. If a TEAD lipid pocket binder such as binds and displaces the lipid pocket probe, the disruption of the TEAD:probe interaction results in a decrease in TR-FRET signal. The potency of compounds as TEAD lipid pocket binders is determined by IC50 value generated using a non-linear 4 parameter curve fit.

TEAD3 = TEAD3 (Homo sapiens, UniProt Q99594); experiment: TR-FRET (Lipid HTRF) TEAD lipid pocket probe displacement assay, TEAD3; assay type: binding; settings: His-tagged TEAD3, biotinylated lipid pocket probe, 4 hours
Chain of TEAD3 (Q99594 whole entry, species assumed): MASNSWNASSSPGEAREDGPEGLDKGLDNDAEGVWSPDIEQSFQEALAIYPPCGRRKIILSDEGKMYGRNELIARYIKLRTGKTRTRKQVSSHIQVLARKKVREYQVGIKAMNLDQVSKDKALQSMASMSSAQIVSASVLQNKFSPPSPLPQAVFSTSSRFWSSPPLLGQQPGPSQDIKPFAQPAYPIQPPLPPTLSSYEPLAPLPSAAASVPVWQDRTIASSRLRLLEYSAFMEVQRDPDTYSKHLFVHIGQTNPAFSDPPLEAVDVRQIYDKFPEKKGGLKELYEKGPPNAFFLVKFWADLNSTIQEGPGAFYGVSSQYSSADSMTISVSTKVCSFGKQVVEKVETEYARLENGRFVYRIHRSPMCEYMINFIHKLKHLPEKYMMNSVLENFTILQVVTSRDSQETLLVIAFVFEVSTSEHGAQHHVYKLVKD
Experimental: as §1

TEAD4 = TEAD4 (Homo sapiens, UniProt Q15561); experiment: TR-FRET (Lipid HTRF) TEAD lipid pocket probe displacement assay, TEAD4; assay type: binding; settings: His-tagged TEAD4, biotinylated lipid pocket probe, 4 hours
Chain of TEAD4 (Q15561 whole entry, species assumed): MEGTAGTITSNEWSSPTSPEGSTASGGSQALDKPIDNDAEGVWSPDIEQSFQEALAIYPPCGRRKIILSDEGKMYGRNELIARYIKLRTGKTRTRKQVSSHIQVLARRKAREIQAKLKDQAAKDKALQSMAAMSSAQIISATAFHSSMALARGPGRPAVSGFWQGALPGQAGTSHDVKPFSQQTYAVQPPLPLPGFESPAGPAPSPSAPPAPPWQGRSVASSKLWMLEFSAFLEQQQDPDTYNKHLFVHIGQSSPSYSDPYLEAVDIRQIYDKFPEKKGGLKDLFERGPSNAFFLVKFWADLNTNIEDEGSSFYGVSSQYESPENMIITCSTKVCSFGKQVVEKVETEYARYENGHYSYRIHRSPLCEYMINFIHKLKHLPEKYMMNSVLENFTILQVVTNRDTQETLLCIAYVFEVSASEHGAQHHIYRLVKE
Experimental: as §1

TEAD2 [1] = target: T1, TEAD2 (Homo sapiens, UniProt Q15562);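 also: TR-FRET competition assay with His-tagged TEAD protein and a biotinylated lipid pocket probe, where probe displacement by compound lowers the signal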
T1 sequence (Q15562 whole entry, species assumed): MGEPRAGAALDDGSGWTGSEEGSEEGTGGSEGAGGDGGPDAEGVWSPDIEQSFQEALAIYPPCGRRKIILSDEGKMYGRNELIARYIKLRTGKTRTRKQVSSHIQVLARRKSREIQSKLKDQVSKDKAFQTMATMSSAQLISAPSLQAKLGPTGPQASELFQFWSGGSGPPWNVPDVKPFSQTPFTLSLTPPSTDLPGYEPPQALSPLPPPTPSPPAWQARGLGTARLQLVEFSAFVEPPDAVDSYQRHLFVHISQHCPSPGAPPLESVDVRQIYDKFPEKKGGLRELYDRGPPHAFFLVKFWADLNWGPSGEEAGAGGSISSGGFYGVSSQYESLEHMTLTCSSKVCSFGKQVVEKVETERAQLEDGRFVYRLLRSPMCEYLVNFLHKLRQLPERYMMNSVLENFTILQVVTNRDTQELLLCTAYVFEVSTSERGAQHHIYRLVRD
Experimental: as §1

TEAD2 [2] = target: T1, TEAD2; experiment: biochemical
Experimental: as §1

Chain of TEAD1 (P28347 whole entry, species assumed): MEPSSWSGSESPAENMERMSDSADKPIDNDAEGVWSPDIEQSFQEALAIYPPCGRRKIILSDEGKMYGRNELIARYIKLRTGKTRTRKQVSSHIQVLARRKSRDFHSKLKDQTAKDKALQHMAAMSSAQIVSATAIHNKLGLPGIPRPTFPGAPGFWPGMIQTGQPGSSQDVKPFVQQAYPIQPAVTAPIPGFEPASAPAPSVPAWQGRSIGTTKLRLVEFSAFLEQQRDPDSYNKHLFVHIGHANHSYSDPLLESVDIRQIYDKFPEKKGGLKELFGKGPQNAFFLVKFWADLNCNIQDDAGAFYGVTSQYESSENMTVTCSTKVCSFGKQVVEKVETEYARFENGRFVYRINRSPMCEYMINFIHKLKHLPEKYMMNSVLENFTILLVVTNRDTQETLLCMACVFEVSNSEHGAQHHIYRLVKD

IC50 (TEAD1) [µM]	IC50 (TEAD3) [µM]	IC50 (TEAD4) [µM]	IC50 (TEAD2 [1]) [µM]	IC50 (TEAD2 [2]) [µM]	Compound
0.032	2.5	0.054	0.01	–	C=CC(=O)NCc1cc(-c2ccc(OC(F)(F)F)cc2)c2ncn(C)c2c1[C@@H](C)O (single isomer, unassigned) [Compound 32]
0.0069	0.093	0.0035	0.006	–	C=CC(=O)NCc1cc(-c2ccc(OC(F)(F)F)cc2)c2ncn(C)c2c1C#CCO [Compound 58, N-[[4-(3-hydroxyprop-1-ynyl)-3-methyl-7-[4-(trifluoromethoxy)phenyl]benzimidazol-5-yl]methyl]prop-2-enamide]
0.026	0.42	0.023	–	0.028	C=CC(=O)NC1CN(c2nc(-c3ccc(OC(F)(F)F)cc3)c3ncn(C)c3n2)C1 [Compound 127, N-(1-(9-Methyl-6-(4-(trifluoromethoxy)phenyl)-9H-purin-2-yl)azetidin-3-yl)acrylamide]
0.011	0.0099	0.0027	–	0.021	Cn1cnc2c(-c3ccc(OC(F)(F)F)cc3)nc(C3(C#N)CN(C(=O)/C=C/CO)C3)nc21 [Compound 128, (E)-1-(4-Hydroxybut-2-enoyl)-3-(9-methyl-6-(4-(trifluoromethoxy)phenyl)-9H-purin-2-yl)azetidine-3-carbonitrile]
0.6	1.35	0.0245	–	1.1	C=C1CCN(Cc2nc(-c3ccc(OC(F)(F)F)cc3)c3ncn(C)c3n2)C1=O [Compound 129, 1-((9-Methyl-6-(4-(trifluoromethoxy)phenyl)-9H-purin-2-yl)methyl)-3-methylenepyrrolidin-2-one]
0.41	0.44	0.14	–	1	C=CC(=O)NCc1nc(N2CCC(C(F)(F)F)CC2)c2ncn(C)c2n1 [Compound 130, N-((9-Methyl-6-(4-(trifluoromethyl)piperidin-1-yl)-9H-purin-2-yl)methyl)acrylamide]
0.4	1.2	0.081	–	1.6	C=CC(=O)NCc1nc(N2CCC(OC(F)(F)F)CC2)c2ncn(C)c2n1 [Compound 131, N-((9-Methyl-6-(4-(trifluoromethoxy)piperidin-1-yl)-9H-purin-2-yl)methyl)acrylamide]
0.0069	0.1	0.024	–	0.15	C=C(F)C(=O)N1CC(c2nc(-c3ccc(OC(F)(F)F)cc3)c3ncn(C(F)F)c3n2)C1 [Compound 132, 1-(3-(9-(Difluoromethyl)-6-(4-(trifluoromethoxy)phenyl)-9H-purin-2-yl)azetidin-1-yl)-2-fluoroprop-2-en-1-one]
0.052	0.42	0.028	–	0.36	C=CC(=O)NCc1nc(-c2ccc(OC(F)(F)F)cc2)nc2c1ncn2C [Compound 133, N-((9-Methyl-2-(4-(trifluoromethoxy)phenyl)-9H-purin-6-yl)methyl)acrylamide]
0.2	0.31	0.65	–	1.7	C=C(F)C(=O)N1CC(n2cc(-c3ccc(OC(F)(F)F)cc3)c3nccnc3c2=O)C1 [Compound 134, 6-(1-(2-Fluoroacryloyl)azetidin-3-yl)-8-(4-(trifluoromethoxy)phenyl)pyrido[3,4-b]pyrazin-5(6H)-one]
0.018	0.047	0.012	–	0.03	C=C(F)C(=O)N1CC(n2cc(-c3ccc(OC(F)(F)F)cc3)c3ncn(C)c3c2=O)C1 [Compound 136, 5-(1-(2-Fluoroacryloyl)azetidin-3-yl)-3-methyl-7-(4-(trifluoromethoxy)phenyl)-3,5-dihydro-4H-imidazo[4,5-c]pyridin-4-one]
0.075	0.095	0.014	–	0.094	Cn1cnc2c(-c3ccc(OC(F)(F)F)cc3)cn(C3CN(C(=O)/C=C/CO)C3)c(=O)c21 [Compound 137, (E)-5-(1-(4-Hydroxybut-2-enoyl)azetidin-3-yl)-3-methyl-7-(4-(trifluoromethoxy)phenyl)-3,5-dihydro-4H-imidazo[4,5-c]pyridin-4-one]
0.027	3	0.043	–	0.047	C=CC(=O)NCc1cc(-c2ccc(OC(F)(F)F)cc2)c2ncn(C)c2c1NCCO [Compound 140, N-((7-((2-Hydroxyethyl)amino)-1-methyl-4-(4-(trifluoromethoxy)phenyl)-1H-benzo[d]imidazol-6-yl)methyl)acrylamide]
0.058	1.6	0.015	–	0.098	C=C(NC(=O)c1cc(-c2ccc(OC(F)(F)F)cc2)c2ncn(C)c2c1)C(=O)OC [Compound 141, Methyl 2-(1-methyl-4-(4-(trifluoromethoxy)phenyl)-1H-benzo[d]imidazole-6-carboxamido)acrylate]
0.026	0.069	0.0095	–	0.022	C=CC(=O)NCc1cc(-c2ccc(OC(F)(F)F)cc2F)c2ncn(C)c2c1C#N [Compound 143, N-((7-Cyano-4-(2-fluoro-4-(trifluoromethoxy)phenyl)-1-methyl-1H-benzo[d]imidazol-6-yl)methyl)acrylamide]
0.094	1.3	0.023	–	0.039	C=CC(=O)N(C)CCc1cc(-c2ccc(OC(F)(F)F)cc2)c2ncn(C)c2c1C#N [Compound 144, N-(2-(7-Cyano-1-methyl-4-(4-(trifluoromethoxy)phenyl)-1H-benzo[d]imidazol-6-yl)ethyl)-N-methylacrylamide]
0.0069	0.24	0.012	–	0.019	C=C(F)C(=O)N1CC(c2cc(-c3ccc(OC(F)(F)F)cc3)c3ncn(C)c3c2)C1 [Compound 145, 2-Fluoro-1-(3-(1-methyl-4-(4-(trifluoromethoxy)phenyl)-1H-benzo[d]imidazol-6-yl)azetidin-1-yl)prop-2-en-1-one]
